What was measured:
[1] = Final pediatric population PK model; format: in vivo, human
[2] = Observed C24 in P1093; format: in vivo; details: human, plasma, oral, Geometric mean C24, P1093, ≥ 6 to < 10 kg
[3] = healthy adult volunteers, same dose; cited from earlier work
[4] = maturation half-time, fixed; based on paracetamol; ref Anderson et al.; cited from earlier work
[5] = final PopPK model, reference 70-kg subject

- V/F~WT ([1]; effect of weight on V/F (exponent)): 0.556
- KA~DT and granules ([1]; final PopPK model, factor on KA of FCT): 2.04
- KA, FCT ([1]; final PopPK model, film-coated tablet): 0.854 h^–1
- CL/F [1, 5]: 1.03 L/h
- V/F [1, 5]: 13.6 L
- ω^2CL point estimate ([1]; inter-individual variability of CL/F, variance): 0.0863
- ω^2KA point estimate ([1]; inter-individual variability of KA, variance): 0.762
- ω^2V point estimate ([1]; inter-individual variability of V/F, variance): 0.0698
- ω^2IOV,KA point estimate ([1]; inter-occasion variability of KA, variance): 0.610
- F, fasted DT/granules ([1]; relative bioavailability): 1.53
- F, without regard to food, FCT ([1]; relative bioavailability): 1.10
- F, fasted FCT ([1]; relative bioavailability, reference, fixed): 1.00
- concentration at 24 h ([2]; 10 mg, < 6 months of age, DT 10 mg QD): 1820 ng/mL
- concentration at 24 h ([2]; 10 mg, ≥ 6 months of age, DT 10 mg QD): 735 ng/mL
- concentration at 24 h ([2]; 15 mg, ≥ 6 months of age, DT 15 mg QD): 908 ng/mL
Structure (SMILES): C[C@@H]1CCO[C@H]2Cn3cc(C(=O)NCc4ccc(F)cc4F)c(=O)c(O)c3C(=O)N12 [dolutegravir, Dolutegravir]
- KA (DT and granules) ([1]; calculated as 0.854 × 2.04): KA (DT and granules) = 1.74 (95% CI 1.20–2.28), calculated as 0.854 × 2.04 (95% CI 0.854 × 1.41–0.854 × 2.67)
- Relative bioavailability of DT vs granules [3]: comparable
- TM50 [4]: 52.2 FIX week

Source: article PMC10520196 (Clinical Pharmacokinetics, 2023)
